Data taken from patent US9045466B2, “Amidine compound or salt thereof” (priority 2011, dated 2015).
In brackets after ≈: the same amount, converted by molar mass. Counter-ions that a name gives are not always drawn.

system: Trichophyton rubrum NBRC 5467; assay: Fungal susceptibility test, broth microdilution method (MIC); assay type: cell-based; settings: NBRC5467, 96 h, RPMI/MOPS pH 7.0, 35° C. for 4 days, visual, lowest concentration with approximately 80% growth inhibition, read-out: MIC (μg/mL) T. rubrum NBRC5467
Method: The fungal susceptibility tests on test substances were conducted by the broth microdilution method equivalent to Clinical and Laboratory Standards Institute method. The medium used in the susceptibility tests was RPMI1640 adjusted to pH 7.0 with 0.165 mol/L morpholinepropanesulfonic acid (MOPS) and 50% sodium hydroxide (RPMI/MOPS). Each test substance was dissolved in DMSO and serially diluted in 2-fold increments with DMSO on a 96-well microplate. Then, the dilutions were dispensed by 1 μL to a 96-well microplate. Candida albicans TIMM 1623 cultured overnight at 35° C. in Sabouraud's agar medium was suspended in sterile saline. The number of cells was counted under a biological microscope, and the fungal suspension was diluted with RPMI/MOPS to prepare the inoculum solution (approximately 1×10^3 cells/mL). Alternatively, Candida albicans TIMM 1623 stored at −80° C. was diluted with RPMI/MOPS to prepare the inoculum solution (approximately 1×10^3 CFU/mL). Aspergillus fumigatus TIMM 0063 stored at 5° C. was diluted with RPMI/MOPS to prepare the inoculum solution (approximately 1×10^4 CFU/mL). Trichophyton rubrum NBRC 5467 stored at 5° C. or −80° C. was diluted with RPMI/MOPS to prepare the inoculum solution (approximately 2×10^3 CFU/mL). The 199 μL of inoculum solution was dispensed to each well to prepare the microplate containing the designated concentrations of test substance, medium and fungal cells. Candida albicans and Aspergillus fumigatus were cultured at 35° C. for 2 days. Trichophyton rubrum was cultured at 35° C. for 4 days. After the completion of culture, MIC was determined by visual observation. The MICs of Candida albicans and Aspergillus fumigatus were set to the lowest concentration at which approximately 50% growth inhibition was seen, when compared with a growth control without the addition of the test substance. The MIC of Trichophyton rubrum was set to the lowest concentration at which approximately 80% growth inhibition was seen, when compared with a growth control without the addition of the test substance.

MIC [µg/mL] | Structure (SMILES)
0.25 (≈ 0.593 µM) | COC(=O)CN(C)/C=N/c1cc(C)c(Cc2nc(-c3ccc(C)cc3)cs2)cc1C [Example 7, Methyl N-{(E)-[(2,5-dimethyl-4-{[4-(4-methylphenyl)-1,3-thiazol-2-yl]methyl}phenyl)imino]methyl}-N-methylglycinate]
0.0039 | CCN(C)/C=N/c1cc(C)c(Cc2nc(-c3ccc(S(C)(=O)=O)cc3)cs2)cc1C [Example 23, N′-[2,5-Dimethyl-4-{4-[4-(methylsulfonyl)phenyl]-1,3-thiazol-2-yl}methyl)phenyl]-N-ethyl-N-methylimidoformamide dihydrochloride]
0.0039 (≈ 0.0113 µM) | CCN(C)/C=N/c1cc(C)c(Cc2nc(OC(C)C)cs2)cc1C [Example 32, N′-(2,5-Dimethyl-4-{[4-(propan-2-yloxy)-1,3-thiazol-2-yl]methyl}phenyl)-N-ethyl-N-methylimidoformamide]
0.0078 (≈ 0.0182 µM) | CCN(C)/C=N/c1cc(C)c(Cc2nc(C(O)c3ccc(Cl)cc3)cs2)cc1C (stereo not shown) [Example 38, N′-[4-({4-[(4-Chlorophenyl)(hydroxy)methyl]-1,3-thiazol-2-yl}methyl)-2,5-dimethylphenyl]-N-ethyl-N-methylimidoformamide]
0.0078 (≈ 0.0185 µM) | CCN(C)/C=N/c1cc(C)c(Cc2nc(-c3ccc(C(=O)NC)cc3)cs2)cc1C [Example 41, 4-{2-[4-({(E)-[Ethyl(methyl)amino]methylidene}amino)-2,5-dimethylbenzyl]-1,3-thiazol-4-yl}-N-methylbenzamide]

same assay, conditions: NBRC5467, 96 h, pH 7, read-out: MIC (μg/mL) T. rubrum NBRC5467

Structure (SMILES) | MIC [µg/mL]
CCN(C)/C=N/c1cc(C)c(Cc2nc(C(=O)c3ccccc3)cs2)cc1C [Example 19, N′-(2,5-Dimethyl-4-{[4-(phenylcarbonyl)-1,3-thiazol-2-yl]methyl}phenyl)-N-ethyl-N-methylimidoformamide dihydrochloride] | 0.0156
CCN(C)/C=N/c1cc(C)c(Cc2nc(-c3cncc(F)c3)cs2)cc1C [Example 21, N-Ethyl-N′-(4-{[4-(5-fluoropyridin-3-yl)-1,3-thiazol-2-yl]methyl}-2,5-dimethylphenyl)-N-methylimidoformamide trihydrochloride] | 0.0156
CCN(C)/C=N/c1cc(C)c(Cc2nc(-c3ccccc3)c(C(=O)c3ccccc3)s2)cc1C [Example 25, N′-(2,5-Dimethyl-4-{[4-phenyl-5-(phenylcarbonyl)-1,3-thiazol-2-yl]methyl}phenyl)-N-ethyl-N-methylimidoformamide dihydrochloride] | 0.0313
CCN(C)/C=N/c1cc(C)c(Cc2nc(CS(=O)(=O)c3ccc(C)cc3)cs2)cc1C [Example 30, N′-{2,5-Dimethyl-4-[(4-{[(4-methylphenyl)sulfonyl]methyl}-1,3-thiazol-2-yl)methyl]phenyl}-N-ethyl-N-methylimidoformamide dihydrochloride] | 0.0625
CCOC(=O)Nc1csc(Cc2cc(C)c(/N=C/N(C)CC)cc2C)n1 [Example 31, Ethyl {2-[4-({(E)-[ethyl(methyl)amino]methylidene}amino)-2,5-dimethylbenzyl]-1,3-thiazol-4-yl}carbamate dihydrochloride] | 0.0078
CCN(C)/C=N/c1cc(C)c(Cc2nc(COC(C)=O)cs2)cc1C [Example 34, {2-[4-({(E)-[Ethyl(methyl)amino]methylidene}amino)-2,5-dimethylbenzyl]-1,3-thiazol-4-yl}methyl acetate dihydrochloride] | 0.0313
CCOC(=O)c1csc(Cc2cc(C)c(/N=C/N(C)CC)cc2C)n1 [Example 35, Ethyl 2-[4-({(E)-[ethyl(methyl)amino]methylidene}amino)-2,5-dimethylbenzyl]-1,3-thiazole-4-carboxylate] | 0.0313 (≈ 0.0871 µM)
CCN(C)/C=N/c1cc(C)c(Cc2nc(-c3cnc(C)cn3)cs2)cc1C [Example 37, N′-(2,5-Dimethyl-4-{[4-(5-methylpyrazin-2-yl)-1,3-thiazol-2-yl]methyl}phenyl)-N-ethyl-N-methylimidoformamide dihydrochloride] | 0.0039
